# From ChEMBL document CHEMBL5247589, “Natural occurrence, bioactivity, and biosynthesis of triene-ansamycins” (Eur J Med Chem, 2022)
# Experiments:
# [1] = tested on: Capan-2; experiment: Antitumor activity against human Capan-2 cells incubated for 48 to 72 hrs by MTS Assay; type: functional, cell-based
# [2] = tested on: PC-3; experiment: Antitumor activity against human PC-3 cells incubated for 72 hrs by SRB calorimetric assay; type: functional, cell-based; conditions: PC-3, 72 h
# [3] = tested on: BXPC-3; experiment: Antitumor activity against human BXPC-3 cells incubated for 48 to 72 hrs by MTS Assay; type: functional, cell-based
# [4] = tested on: PANC-1; experiment: Antitumor activity against human PANC-1 cells incubated for 48 to 72 hrs by MTS Assay; type: functional, cell-based
# [5] = tested on: HepG2; experiment: Antitumor activity against human HepG2 cells incubated for 72 hrs by SRB calorimetric assay; type: functional, cell-based; conditions: HepG2, 72 h
# [6] = Inhibition of NO production in LPS stimulated mouse BV-2 cells measured after 24 hrs; type: functional, cell-based; conditions: BV-2, 24 h
# [7] = tested on: Ca-Ski; experiment: Antitumor activity against human Ca-Ski cells assessed as cell growth inhibition incubated for 5 days by MTT assay; type: functional, cell-based; conditions: 120 h
# [8] = tested on: C-33-A; experiment: Antitumor activity against human C-33-A cells assessed as cell growth inhibition incubated for 5 days by MTT assay; type: functional, cell-based; conditions: 120 h
# [9] = tested on: HeLa; experiment: Antitumor activity against human HeLa cells assessed as cell growth inhibition incubated for 5 days by MTT assay; type: functional, cell-based; conditions: 120 h
# [10] = tested on: SiHa; experiment: Antitumor activity against human SiHa cells assessed as cell growth inhibition incubated for 5 days by MTT assay; type: functional, cell-based; conditions: 120 h
# [11] = tested on: HT-3; experiment: Antitumor activity against human HT-3 cells assessed as cell growth inhibition incubated for 5 days by MTT assay; type: functional, cell-based; conditions: HT-3, 120 h
# [12] = tested on: MCF7; experiment: Antitumor activity against human MCF7 cells incubated for 72 hrs by MTT assay; type: functional, cell-based; conditions: MCF7, 72 h
# [13] = tested on: A549; experiment: Antitumor activity against human A549 cells incubated for 72 hrs by MTT assay; type: functional, cell-based; conditions: A549, 72 h
# [14] = tested on: K562; experiment: Antitumor activity against human K562 cells incubated for 24 hrs by CCK-8 assay; type: functional, cell-based; conditions: K562, 24 h
# [15] = tested on: HT-29; experiment: Antitumor activity against human HT29 cells; type: functional, cell-based
# [16] = tested on: B16; experiment: Antitumor activity against mouse B-16 cells; type: functional, cell-based
# [17] = tested on: HCT-116; experiment: Antitumor activity against human HCT116 cells; type: functional, cell-based
# [18] = tested on: U-937; experiment: Antitumor activity against human U937 cells; type: functional, cell-based
# [19] = tested on: HeLa; experiment: Antitumor activity against human HeLa cells; type: functional, cell-based
# [20] = tested on: THP-1; experiment: Antitumor activity against human THP1 cells; type: functional, cell-based
# [21] = tested on: HL-60; experiment: Antitumor activity against human HL60 cells; type: functional, cell-based
# [22] = tested on: HepG2; experiment: Antiproliferative activity against human HepG2 cells assessed as cell viability incubated for 48 hrs by Cell Counting Kit-8 assay; type: functional, cell-based; conditions: HepG2, 48 h
# [23] = tested on: PC-3; experiment: Antiproliferative activity against human PC3 cells assessed as cell viability incubated for 48 hrs by Cell Counting Kit-8 assay; type: functional, cell-based; conditions: PC-3, 48 h
# [24] = Antiproliferative activity against human U87 cells overexpressing miR-9 assessed as cell viability incubated for 48 hrs by Cell Counting Kit-8 assay; type: functional, cell-based, U-87MG ATCC; conditions: U-87 MG
# [25] = tested on: PC-3; experiment: Antiproliferative activity against human PC-3 assessed as cell growth inhibition incubated for 48 hrs by Cell Counting Kit-8 assay; type: functional, cell-based; conditions: PC-3, 48 h
# [26] = Antiproliferative activity against human U-87 MG assessed as cell growth inhibition incubated for 48 hrs by Cell Counting Kit-8 assay; type: functional, cell-based, U-87MG ATCC
# [27] = tested on: HepG2; experiment: Antiproliferative activity against human HepG2 assessed as cell growth inhibition incubated for 48 hrs by Cell Counting Kit-8 assay; type: functional, cell-based; conditions: HepG2, 48 h
# [28] = tested on: HL-60; experiment: Antitumor activity against human HL60 cells assessed as cell growth incubated for 1 day by MTT assay; type: functional, cell-based; conditions: HL-60, 24 h
# [29] = tested on: HL-60; experiment: Induction of apoptosis in human HL-60 cells assessed as effective dose; type: functional; conditions: read-out: ED50 (the source's name)
# [30] = Cytotoxicity against human WI-38 cells assessed as cell growth incubated for 1 day by MTT assay; type: toxicity, cell-based
# [31] = tested on: Pyricularia oryzae; experiment: Antimicrobial activity against Pyricularia oryzae by agar dilution method; type: functional
# [32] = Inhibition of bovine brain FTase; set-up: species or system Bos taurus
smiles,measurement,setting,value
CCCC(=O)N[C@H](C)C(=O)O[C@H]1C/C=C/C=C/C=C/[C@H](OC)CC(=O)Nc2cc(O)cc(c2)CC/C=C(/C)[C@H](O)[C@H]1C,IC50,[1],2040 nM
same,IC50,[2],2040 nM
same,IC50,[3],2040 nM
same,IC50,[4],2040 nM
same,IC50,[5],2040 nM
CO[C@H]1/C=C/C=C/C=C/C[C@H](O)[C@H](C)[C@@H](OC(=O)[C@@H](C)NC(=O)C2CCCCC2)/C(C)=C\CCc2cc(O)cc(c2)NC(=O)C1,IC50,[1],> 10000 nM
same,EC50,[6],292 nM
same,IC50,[3],> 10000 nM
same,IC50,[4],> 10000 nM
CO[C@H]1/C=C/C=C/C=C/C[C@H](OC(=O)[C@@H](C)NC(=O)C2CCCCC2)[C@H](C)[C@@H](O)/C(C)=C\CCC2=C(O)C(=O)C=C(NC(=O)C1)C2=O,IC50,[7],70 nM
same,IC50,[8],70 nM
same,IC50,[9],70 nM
same,IC50,[10],70 nM
same,IC50,[11],70 nM
CO[C@H]1/C=C/C=C/C=C/C[C@H](OC(C)=O)[C@H](C)[C@@H](O)/C(C)=C\CCc2cc(O)cc(c2)NC(=O)C1,IC50,[12],> 10000 nM
same,IC50,[13],> 10000 nM
same,IC50,[14],> 10000 nM
CO[C@H]1/C=C/C=C/C=C/C[C@H](OC(=O)C2(NC(=O)C3=CCCCC3)CC2)[C@H](C)[C@@H](O)/C(C)=C\CCc2c(O)c(cc3c2SCC(=O)N3)NC(=O)C1,IC50,[15],300 nM
same,IC50,[16],300 nM
same,IC50,[17],300 nM
same,IC50,[18],300 nM
same,IC50,[19],300 nM
same,IC50,[20],300 nM
same,IC50,[21],300 nM
CO[C@@H]1CC(=O)Nc2c(O)c3cc4c2[C@H]1[C@@H](/C=C/C=C/C[C@H](O)[C@H](C)[C@@H](OC(=O)[C@@H](C)NC(=O)C1CCCCC1)/C(C)=C\CC3)O4,IC50,[22],> 10000 nM
same,IC50,[23],> 10000 nM
same,IC50,[24],> 10000 nM
CO[C@H]1/C=C/C=C/C=C/C[C@H](O)[C@H](C)[C@@H](OC(=O)[C@@H](C)NC(=O)C2CCCCC2)/C(C)=C\CCC2=C(O)C(=O)C=C(NC(=O)C1)C2=O,IC50,[7],450 nM
same,IC50,[8],450 nM
same,IC50,[9],450 nM
same,IC50,[10],450 nM
same,IC50,[11],450 nM
CO[C@@H]1CC(=O)Nc2c(O)c3cc4c2[C@H]1[C@@H](/C=C/C=C/C[C@H](OC(=O)[C@@H](C)NC(=O)C1CCCCC1)[C@H](C)[C@@H](O)/C(C)=C\CC3)O4,IC50,[25],2210 nM
same,IC50,[26],7010 nM
same,IC50,[27],610 nM
CO[C@H]1/C=C/C=C/C=C/C[C@H](OC(=O)C2(NC(=O)C3=CCCCC3)CC2)[C@H](C)[C@@H](O)/C(C)=C\CCc2cc(O)cc(c2O)NC(=O)C1,IC50,[28],7.7 nM
same,EC50,[29],7700 nM
same,IC50 at 1 day,[30],7.7 nM
same,MIC,[31],12.5 µg/mL
CO[C@H]1/C=C/C=C/C=C/C[C@H](OC(=O)[C@@H](C)NC(=O)C2=CCCCC2)[C@H](C)[C@@H](O)/C(C)=C\CCc2cc(O)cc(c2O)NC(=O)C1,IC50,[32],1.2 µg/mL
